Measurements as given in EP4806421A2, “PHARMACEUTICAL COMPOSITIONS OF NANOCRYSTALLIZED XANTHATIN AND USE THEREOF AS AN ANTI-TUMOR AGENT” (Centro de Investigación y Desarrollo de Medicamentos CIDEM, priority 2023, dated 2025).

Experiments:
[1] = tested on: HT-29 human colorectal adenocarcinoma tumor line; test: Cell cycle progression by flow cytometry (PI/RNase staining); assay type: cell-based; conditions: HT-29 cells, 10 and 20 µM, 48 h, compared with untreated control and docetaxel 2 µM positive control
Method: Assay to evaluate the in vitro antiproliferative activity of nanocrystallized xanthatin by flow cytometry.
The antiproliferative activity through cell cycling arrest was evaluated in HT-29 cells. Cells were cultured in 6-well plates (2×10^5 and 1×10^5 cells/ml, respectively) until 90% confluence was reached. Three xanthatin samples were evaluated: commercial, laboratory-isolated, and nanocrystallized xanthatin at concentrations of 10 and 20 µM. Prior to treatment, both commercial and isolated xanthatin were dissolved in DMSO, unlike nanocrystallized xanthatin, which was added directly to the cell culture medium. Medium supplemented with 1% FBS was used as the control. Docetaxel 2 µM was used as a positive control for cell cycle arrest in G2/M. The treatments were added to the medium supplemented with 1% FBS on the day after seeding the cells on the plates. The cells were incubated for 48 h upon the treatments, harvested, fixed in 100% ethanol, and stored at -20°C. Cell cycle distribution was next assessed using flow cytometry. On the day of the assay, samples were incubated with a PI/Rnase mixture at room temperature and in the dark for 20 min prior to analysis.

[2] = tested on: HeLa cervical carcinoma tumor lines; test: MTT reduction assay, cell viability (HeLa); assay type: cell-based, human; conditions: HeLa cells, 10 and 20 µM, 24 h, isolated xanthatin dissolved in DMSO, nanocrystals added directly to the medium
Method: (§1) Cell growth inhibition of nanocrystallized xanthatin assessed using the MTT assay.
(§2) The viability of the cultured cells was assessed using the MTT reduction assay. The assay was performed using the method described by Mosmann (1983). HT-29 and HeLa cells were seeded in 96-well plates at 10^4 cells/ml and 5x10^3 cells/ml respectively. The cells were cultured in Dulbecco's modified Eagle's medium (DMEM) supplemented with 10% FBS, 1% glutamine, triple antibiotic (3A), and 25 mM glucose, and maintained at 37°C in a 5% CO2 incubator until 80-90% confluence. After 24h of incubation, to ensure cell adhesion, the medium was removed and different concentrations (10 and 20 µM) of either commercial xanthatin, isolated xanthatin, and xanthatin nanocrystals, or as a negative control medium supplemented with 1% DMSO, were added. Prior to treatment, the commercial and isolated xanthatin samples were dissolved in DMSO, unlike the nanocrystallized xanthatin that was directly added to the cell culture medium. The prepared plates were incubated for 24 h, and 50 µL MTT (5 mg/ml) per well was added to a final concentration of 1 mg/ml. […] Relative cell viability was determined by measuring the absorbance at 540 nm on an ELISA plate reader (Tecan Sunrise MR20-301, TECAN Austria). Absorbance is directly proportional to the level of cell proliferation or viability. […]

[3] = tested on: HT-29 colorectal adenocarcinoma; test: MTT reduction assay, cell viability (HT-29); assay type: cell-based, human; conditions: HT-29 cells, 10 and 20 µM, 24 h, isolated xanthatin dissolved in DMSO, nanocrystals added directly to the medium
Method: as §1, §2

[4] = tested on: murine U14 cervical carcinoma cells; test: In vivo antitumor effect of in situ gelation containing xanthatin nanocrystals, tumor implant near the cervix; set-up: species or system female BALB/c mice; conditions: hydrogel intravaginal 0.850 mg nanocrystallized xanthatin per mouse daily for 5 days, carboplatin i.v. 0.675 mg per mouse for 3 days
Method: Evaluation of the in vivo antitumor effect of in situ gelation containing xanthatin nanocrystals was performed using murine U14 cervical carcinoma cells inoculated into the cervix of female BALB/c mice with an average weights of 22-24 g. Tumor implantation was performed by inoculating the submucosa near the cervix of each animal with 25 µL of cell suspension in PBS, with a total of 4×10^5 cells/mouse. Four randomly distributed groups of 6 animals per group were formed. The treatment schedule was carried out for 5 days with a daily intravaginal infusion of the thermosensitive hydrogel containing the xanthatin nanocrystals (8.5 µL, 0.850 mg of nanocrystallized xanthatin per mouse) and placebo, and for 3 days with a daily intravaginal infusion of […] Tumor weight and tumor inhibition rates were evaluated. Tumor inhibition rate was calculated using the following formula: TIR = (Aw −Ax)/([…]) × 100 [formula]
Where: • TIR means tumor inhibition rate in %. • AW means the average weight of tumors in the control group. • Ax means the average weight of the tumors of the treated group.

## C=C1C(=O)O[C@H]2C[C@H](C)C(/C=C/C(C)=O)=CC[C@H]12 [laboratory isolated xanthatin, xanthatin]
[1]; listed as isolated xanthatin
  cell cycle arrest in the G2/M phase: induced cell cycle arrest in the G2/M phase
[2]
  viability inhibition: significantly higher than that of commercial xanthatin
[3]
  viability inhibition: significantly higher than that of commercial xanthatin

## C=C1C(=O)O[C@H]2C[C@H](C)C(/C=C/C(C)=O)=CC[C@H]12 [commercial xanthatin, xanthatin]
[1]
  cell cycle arrest in the G2/M phase: no statistically significant differences

## N.N.O=C([O-])C1(C(=O)[O-])CCC1.[Pt+2] [injectable carboplatin, carboplatin]
[4]; calculated from average tumor weights
  tumor inhibition rate: 54.4%
[4]; with respect to the placebo and control groups
  tumor weight: significant decrease
